In ChEMBL document CHEMBL1136321, “Regioselective synthesis and cytotoxicities of camptothecin derivatives modified at the 7-, 10- and 20-positions” (Bioorg Med Chem Lett, 2003):

How the values were obtained:
Type in all cases: functional, cell-based
A549 = assay: In vitro cytotoxicity against A549 (human lung cancer)
A2780 = assay: In vitro cytotoxicity against A2780 (human ovarian cancer)
Bel-7402 = assay: In vitro cytotoxicity against Bel7402 (human liver cancer); conditions: Bel-7402, Liver
HCT-8 = assay: In vitro cytotoxicity against HCT-8 (human colon cancer)
KB VCR R = assay: In vitro cytotoxicity against KB/VCR (Vincristine-resistant cancer cell line); conditions: Homo sapiens
KB = assay: In vitro cytotoxicity against KB (human epidermoid carcinoma of the nasopharynx)

CC[C@@]1(O)C(=O)OCc2c1cc1n(c2=O)Cc2c-1nc1ccccc1c2COC(=O)COc1ccc(F)cc1
IC50 (A549): 57 nM
IC50 (A2780): 8 nM
IC50 (Bel-7402): 9 nM
IC50 (HCT-8): 8 nM
IC50 (KB VCR R): 49 nM
IC50 (KB): 7 nM

CC[C@@]1(OC(=O)COc2ccc(F)cc2)C(=O)OCc2c1cc1n(c2=O)Cc2c-1nc1ccccc1c2COC(=O)COc1ccc(F)cc1
IC50 (A549): 293 nM
IC50 (A2780): 58 nM
IC50 (Bel-7402): 26 nM
IC50 (HCT-8): 52 nM
IC50 (KB VCR R): > 1000 nM
IC50 (KB): 72 nM

CC[C@@]1(OC(=O)COc2ccc(C#N)c(F)c2)C(=O)OCc2c1cc1n(c2=O)Cc2c-1nc1ccccc1c2COC(=O)COc1ccc(C#N)c(F)c1
IC50 (A549): 55 nM
IC50 (A2780): 10 nM
IC50 (Bel-7402): 33 nM
IC50 (HCT-8): 48 nM
IC50 (KB VCR R): 53 nM
IC50 (KB): 9 nM

CC[C@@]1(OC(=O)COc2ccc(OC)cc2)C(=O)OCc2c1cc1n(c2=O)Cc2c-1nc1ccccc1c2COC(=O)COc1ccc(OC)cc1
IC50 (A549): 348 nM
IC50 (A2780): 71 nM
IC50 (Bel-7402): 84 nM
IC50 (HCT-8): 76 nM
IC50 (KB VCR R): 267 nM
IC50 (KB): 310 nM

CC[C@@]1(OC(=O)COc2ccc(F)cc2)C(=O)OCc2c1cc1n(c2=O)Cc2cc3cc(OC(=O)COc4ccc(F)cc4)ccc3nc2-1
IC50 (A549): 401 nM
IC50 (A2780): 15 nM
IC50 (Bel-7402): 95 nM
IC50 (HCT-8): 82 nM
IC50 (KB VCR R): 295 nM
IC50 (KB): 55 nM

CC[C@@]1(OC(=O)COc2ccc(OC)cc2)C(=O)OCc2c1cc1n(c2=O)Cc2cc3cc(OC(=O)COc4ccc(OC)cc4)ccc3nc2-1
IC50 (A549): 718 nM
IC50 (A2780): 88 nM
IC50 (Bel-7402): 200 nM
IC50 (HCT-8): 97 nM
IC50 (KB VCR R): 460 nM
IC50 (KB): 69 nM

CC[C@@]1(O)C(=O)OCc2c1cc1n(c2=O)Cc2c-1nc1ccccc1c2COC(=O)Cc1cc(OC)c(OC)c(OC)c1
IC50 (A549): 160 nM
IC50 (A2780): 61 nM
IC50 (Bel-7402): 72 nM
IC50 (HCT-8): 55 nM
IC50 (KB VCR R): 340 nM
IC50 (KB): 36 nM

CC[C@@]1(O)C(=O)OCc2c1cc1n(c2=O)Cc2cc3cc(OC(=O)COc4ccc(F)cc4)ccc3nc2-1
IC50 (A549): 80 nM
IC50 (A2780): 54 nM
IC50 (Bel-7402): 95 nM
IC50 (HCT-8): 62 nM
IC50 (KB VCR R): 244 nM
IC50 (KB): 53 nM

CC[C@@]1(OC(=O)Cc2cc(OC)c(OC)c(OC)c2)C(=O)OCc2c1cc1n(c2=O)Cc2c-1nc1ccccc1c2COC(=O)Cc1cc(OC)c(OC)c(OC)c1
IC50 (A549): 98 nM
IC50 (A2780): 68 nM
IC50 (Bel-7402): 82 nM
IC50 (HCT-8): 76 nM
IC50 (KB VCR R): 947 nM
IC50 (KB): 78 nM

CC[C@@]1(O)C(=O)OCc2c1cc1n(c2=O)Cc2c-1nc1ccccc1c2COC(=O)COc1ccc(OC)cc1
IC50 (A549): 69 nM
IC50 (A2780): 9 nM
IC50 (Bel-7402): 8 nM
IC50 (HCT-8): 9 nM
IC50 (KB VCR R): 51 nM
IC50 (KB): 8 nM

CC[C@@]1(O)C(=O)OCc2c1cc1n(c2=O)Cc2cc3cc(OC(=O)COc4ccc(OC)cc4)ccc3nc2-1
IC50 (A549): 190 nM
IC50 (A2780): 65 nM
IC50 (Bel-7402): 74 nM
IC50 (HCT-8): 61 nM
IC50 (KB VCR R): 275 nM
IC50 (KB): 47 nM

CC[C@@]1(O)C(=O)OCc2c1cc1n(c2=O)Cc2c-1nc1ccccc1c2COC(=O)COc1ccc(C#N)c(F)c1
IC50 (A549): 8 nM
IC50 (A2780): < 1 nM
IC50 (Bel-7402): < 1 nM
IC50 (HCT-8): < 1 nM
IC50 (KB VCR R): 437 nM
IC50 (KB): < 1 nM

CC[C@@]1(O)C(=O)OCc2c1cc1n(c2=O)Cc2cc3ccccc3nc2-1 [CAMPTOTHECIN]
IC50 (A549): 8 nM
IC50 (A2780): 7 nM
IC50 (Bel-7402): 7 nM
IC50 (HCT-8): 7 nM
IC50 (KB VCR R): 9 nM
IC50 (KB): 9 nM

CC[C@@]1(O)C(=O)OCc2c1cc1n(c2=O)Cc2cc3c(CN(C)C)c(O)ccc3nc2-1 [TOPOTECAN]
IC50 (A549): 87 nM
IC50 (A2780): 58 nM
IC50 (Bel-7402): 78 nM
IC50 (HCT-8): 74 nM
IC50 (KB VCR R): 339 nM
